Results from patent publication US12358954B2, “Capsid-modified rAAV vector compositions and methods therefor” (priority 2012, dated 2025).

Key:
[1] = test system: primary human dendritic cells; assay: AAV-EGFP transduction of primary human dendritic cells with NF-κB modulators (flow cytometry); type: cell-based; conditions: scAAV-transduced DCs treated with cytokines; Bay11 row: cytokines plus Bay11
Method: (§1) Recombinant AAV Vector Transduction Assays in Vitro. Optimal concentration of NF-κB-modulating compounds was determined by a cell viability assay with tenfold-dilutions from the IC50 or were used as described previously (Wu and Miyamoto, 2008; Kumar et al., 2008). VP16 or Bay11 (10 or 5 μM, final concentration), and PDTC (50 or 25 μM final concentration) were used either alone or in activator/inhibitor combinations. For transduction experiments, approximately 1×10^5 HeLa cells were either pre-treated with these compounds 24 hrs prior to vector infection. Cells were transduced with 500 or 2,000 vector genomes (vgs) per cell of recombinant WT-AAV or TM-AAV vectors encoding the EGFP transgene as described previously (Markusic et al., 2010). After 7 days of culture, primary human dendritic cells were transduced with AAV vectors at 2000 vgs/cell and incubated for 48 hrs. Transgene expression was assessed as total area of green fluorescence (pixel^2) per visual field (mean±SD), or by flow cytometry. Analysis of variance (ANOVA) was used to compare between test results and the control and they were determined to be statistically significant.
Cells, Antibodies and Chemicals. […]

anti-AAV2 IgG2a = assay: Anti-AAV2 IgG2a levels in peripheral blood; type: in vivo, mice; conditions: day 10
Method: Anti-AAV2 IgG2a levels were determined in peripheral blood from mice at day 10 following injections with scAAV vectors, with and without prior administration of Bay11 (n=4 each);
Inhibition of NF-κB Activation Leads to Suppression of Pro-Inflammatory Cytokine Production Prior to AAV Vector-Mediated Gene Transfer in Mice in Vivo. In in vivo studies, a single dose of Bay11 at 20 mg/kg body weight was administered intra-peritoneally (i.p.) 12 hrs prior to vector administration in C57BL/6 mice. Transcript levels from liver homogenates of innate immune mediators (FIG. 3A) or for activation of NF-κB (FIG. 3B) genes were measured from Bay11- and vector-injected groups and compared with sham-injected mice. […] The up-regulation of type I interferon expression by both wild-type (WT-AAV) and TM-AAV vectors was unaffected by Bay11 (FIG. 8A, FIG. 8B, FIG. 8C, FIG. 8D, FIG. 8E, and FIG. 8F).

HeLa cells = assay: AAV-EGFP transduction of HeLa cells in the presence of NF-κB modulators; type: cell-based, human
Method: as §1

In the case of Cc1ccc(S(=O)(=O)/C=C/C#N)cc1 [Bay11, Bay11-7082], the “transgene expression in DCs” value [1] is reported as about 12%, the anti-AAV2 antibody response (anti-AAV2 IgG2a) is reported as “significantly reduced” and the “AAV vector-mediated EGFP expression, fold augmentation” value (HeLa cells; HeLa, scAAV-EGFP) is reported as “totally ablated”. For the same molecule, the “VP16-mediated augmented transgene expression” value (HeLa cells; activator/inhibitor combination) was “completely ablated”.
